Experiment in all cases: growth of human tumour cells (NCI), 48 h
Test [1] relates to MCF7 breast.
The test system of test [2] is MDA-MB-231 breast.
Test [3] deals with BT-549 breast.
For test [4], the system named is T-47D breast.
Test [5] concerns NCI-H522 lung.
Test [6] relates to DU-145 prostate.
Test [7] deals with KM20L2 colon.
Test [8] relates to DMS 114 small cell lung.
Test [9] deals with SR leukemia.
For test [10], the system named is M19-MEL melanoma.
For test [11], the system named is XF 498 CNS.

Several values for one entry are separate records, joined by “and”; a condition that tells them apart may be missing. Equal values may be shown once.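 48-hour exposure; five concentrations; linearly interpolated endpoints. GI50 marks 50% less growth. TGI marks complete inhibition of growth.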

For the compound `O=c1[nH]c(=O)n(C2CC(O)C(CO)O2)cc1Br` (stereo unspecified), the TGI in test [1], in test [2], in [3], in test [4], in test [5] and in [6] was above 100 µM each time.
In the case of `NC(=O)/N=C/c1c(O)c2ccccc2oc1=O`, the TGI in test [7] and in [8] was above 100 µM throughout.
For `Cn1c(=O)c2[nH]c(SC/C(=N/O)c3ccc(Br)cc3)nc2n(C)c1=O`, the values for the GI50 in test [9], in [2] and in test [3] were 2.83 µM, 2.14 µM and 2.55 µM, respectively. Moreover, the TGI in test [9] is above 100 µM; in [2], 4.38 µM; in test [3], 7.36 µM.
For the compound `O=S(O)c1cc(Cl)c(O)c(Cl)c1`, the TGI in test [9], in [10], in [5], in test [11] and in test [8] was above 100 µM each time.
As to `O=C1C(=C([O-])c2ccccc2)C(=O)c2ccccc21.O=C1C(=C([O-])c2ccccc2)C(=O)c2ccccc21.[Ni+2]`, in [7], the GI50 is above 100 µM and the TGI is above 100 µM.
As to `COc1ccc2c3/c(=C\c4ccc(N(C)C)cc4)c4ccccc4n3[n+](C)c2c1`, the GI50 in [2] is 0.0352 µM; in test [3], 0.129 µM; in test [5], 0.182 µM; in [6], 0.236 µM. The TGI in test [2] was 0.385 µM; in [3], 2.7 µM; in test [5] it was above 100 µM; in test [6], 1.81 µM.
For `CC1OC(O[C@@H]2C=C3CC[C@@H]4[C@H](CC[C@]5(C)[C@@H](c6ccc(=O)oc6)CC[C@]45O)[C@@]3(C)CC2)C(O)C(OC2OC(CO)C(O)C(O)C2O)C1O` (stereo partly specified), the GI50 in [1] is 0.000196 µM; in test [2] it was 0.000388 µM; in test [4], 0.00216 µM. In addition, the TGI is 0.0804 µM and 0.0468 µM in test [1]; 0.0196 µM in test [2]; 0.039 µM in [10]; 0.0545 µM in test [7]; 0.000427 µM in test [5]; 0.0111 µM in test [6]. In addition, the TGI in [11] was 0.0276 µM.
With `COC(=O)c1c(O)ccc2c1c1c(n2Cc2cccc(C)c2)C(=O)c2ccccc2C1`, the TGI in [1] is above 75 µM; in [9], 29.4 µM; in test [2], above 75 µM; in test [3], above 75 µM; in [4], 32.7 µM; in [6] it was above 75 µM.
For the compound `COc1cc(O)c(Cc2ccccc2O)c(O)c1C(=O)CCc1ccccc1`, the TGI in test [1] turned out to be 18 µM; in test [10], 20.5 µM; in [7], 24.6 µM; in [5], 9.21 µM; in test [11] it was 7.76 µM; in test [8], 14.5 µM.
